PMC8778818, “Synthesis, Structural Characterization and Anticancer Activity of New 5-Trifluoromethyl-2-thioxo-thiazolo[4,5-d]pyrimidine Derivatives” (Pharmaceuticals, 2022)

Assays:
[1] = tested on: SN12C; assay: NCI-60 screen, Renal Cancer SN12C; type: cell-based; details: 10^−5 M one dose
[2] = tested on: OVCAR-4; assay: NCI-60 screen, Ovarian Cancer OVCAR-4; type: cell-based, human; details: OVCAR-4, 10^−5 M one dose
[3] = tested on: HaCaT; assay: MTT cell viability assay, HaCaT; type: cell-based, human; details: Homo sapiens; HaCaT normal cells, MTT, 72 h, mean ± SD
Experimental: Twelve compounds (2a-e, 3a-d and 4a-c) at a concentration range of 50–5000 μM were tested for their antiproliferative potential against four human cancer cell lines (A375—melanotic melanoma, C32—amelanotic melanoma, DU145—prostate cancer androgen-independent, MCF-7/WT—breast adenocarcinoma) and two normal cell lines: Chinese Hamster Ovary (CHO-K1) and immortalized human keratinocytes from histologically normal skin (HaCaT).
To determine the antiproliferative activity of newly synthesized compounds, the following cell lines were used: human melanotic melanoma cell line (A375), human amelanotic melanoma cell line (C32), human breast adenocarcinoma cell line (MCF-7/WT), human prostate cancer androgen-independent (DU145) and two normal cell lines: hamster ovarian (CHO-K1) and immortalized human keratinocytes from histologically normal skin (HaCaT). The cells were obtained from the cell line bank of the Department of Molecular and Cellular Biology, Wroclaw Medical University. A375, C32, MCF-7/WT, DU145 and HaCaT cells were grown in a monolayer cultured in Dulbecco’s Modified Eagle’s Medium (DMEM, Sigma-Aldrich, Poznań, Poland), supplemented with 10% of fetal bovine serum (FBS, Gibco, Paisley, UK) and 1% of antibiotics (penicillin/streptomycin, Sigma-Aldrich) and CHO-K1 were grown in HAM’s F-12 medium (Sigma-Aldrich), supplemented with 10% fetal bovine serum (FBS, Gibco) and 1% of antibiotics (penicillin/streptomycin, Sigma-Aldrich). Cell lines were cultured in the polystyrene flasks 25 or 75 cm^2 (Thermo Fisher Scientific, Waltham, MA, USA), which were stored in 37 °C and 5% CO2 in a humidified 95% atmosphere (SteriCult, Thermo Scientific, Alab). The cell medium was exchanged twice a week. The exponentially growing cells were used throughout the experiments. The cells were rinsed with phosphate-buffered saline (PBS, Sigma-Aldrich) and trypsinized by Trypsin-EDTA 0.25% solution (Sigma-Aldrich).
The influence of the compounds was performed in a monolayer culture on cancer and normal cells. Compounds were initially dissolved in DMSO; further dilutions of the compound were performed in Dulbecco’s Modified Eagle’s Medium supplemented with 10% FBS. Compounds were tested in a 50–5000 µM concentration range. In the in vitro experiments, the concentrations of DMSO in the final solution of the compounds were used 0.05%; 0.1%; 0.5%; 1%, respectively.
Cell viability was determined using the MTT colorimetric assay. All cell lines were seeded into 96-well plates to a density of 3 × 10^4 cells/well. After 24 h, the culture supernatants were removed and appropriate dilutions of compounds in the culture medium (200 µL/well) were added to the cells’ monolayer cultures and incubated for an additional 72 h. After 72 h of exposition to the compounds and the removal of the culture medium, cell viability was determined by reducing the yellow dye 3-(4,5-dimethyl-2-thiazol)-2,5-diphenyl-2H-tetrazolium bromide (MTT assay, Sigma Saint Louis, MO, USA; In Vitro Toxicology Assay) to a blue formazan product. The absorbance of the resulting solutions in three duplicate experiments was measured at the wavelength of 560 nm in a microplate reader (EnSpire, Perkin Elmer, Kraków, Poland). MTT assay is a colorimetric method that estimates the rate of metabolism in viable cells. Absorbance is directly proportional to the number of viable cells. All the experiments were performed three times and the mean absorbance values were calculated. The methodology for the evaluation of the growth of human cancer and normal cells was described previously. The cell viability in each group was expressed as a percentage of control (untreated) cells.

[4] = tested on: HCT-116; assay: NCI-60 screen, Colon Cancer HCT-116; type: cell-based, human; details: HCT-116, 10^−5 M one dose
[5] = tested on: OVCAR-5; assay: NCI-60 screen, Ovarian Cancer OVCAR-5; type: cell-based, human; details: OVCAR-5, 10^−5 M one dose
[6] = tested on: SR; assay: NCI-60 screen, Leukemia SR; type: cell-based, human; details: 10^−5 M one dose
[7] = tested on: SNB-75; assay: NCI-60 screen, CNS Cancer SNB-75; type: cell-based, human; details: SNB-75, 10^−5 M one dose
[8] = tested on: CAKI-1; assay: NCI-60 screen, Renal Cancer CAKI-1; type: cell-based, human; details: CAKI-1, 10^−5 M one dose
[9] = tested on: SW620; assay: NCI-60 screen, Colon Cancer SW620; type: cell-based, human; details: SW620, 10^−5 M one dose
[10] = tested on: NCI-H522; assay: NCI-60 screen, Non-Small Cell Lung Cancer NCI-H522; type: cell-based, human; details: NCI-H522, 10^−5 M one dose
[11] = tested on: MOLT-4; assay: NCI-60 screen, Leukemia MOLT-4; type: cell-based, human; details: MOLT-4, 10^−5 M one dose
[12] = tested on: OVCAR-8; assay: NCI-60 screen, Ovarian Cancer OVCAR-8; type: cell-based, human; details: OVCAR-8, 10^−5 M one dose
[13] = tested on: TK-10; assay: NCI-60 screen, Renal Cancer TK-10; type: cell-based, human; details: TK-10, 10^−5 M one dose
[14] = tested on: LOX IMVI; assay: NCI-60 screen, Melanoma LOX IMVI; type: cell-based, human; details: 10^−5 M one dose
[15] = tested on: BT-549; assay: NCI-60 screen, Breast Cancer BT-549; type: cell-based, human; details: BT-549, 10^−5 M one dose
[16] = tested on: SF-295; assay: NCI-60 screen, CNS Cancer SF-295; type: cell-based, human; details: SF-295, 10^−5 M one dose
[17] = tested on: T-47D; assay: NCI-60 screen, Breast Cancer T-47D; type: cell-based; details: T-47D, 10^−5 M one dose
[18] = tested on: NCI-H460; assay: NCI-60 screen, Non-Small Cell Lung Cancer NCI-H460; type: cell-based, human; details: NCI-H460, 10^−5 M one dose
[19] = tested on: HL-60(TB); assay: NCI-60 screen, Leukemia HL-60(TB); type: cell-based, human; details: 10^−5 M one dose
[20] = tested on: HOP-92; assay: NCI-60 screen, Non-Small Cell Lung Cancer HOP-92; type: cell-based, human; details: HOP-92, 10^−5 M one dose
[21] = tested on: CCRF-CEM; assay: NCI-60 screen, Leukemia CCRF-CEM; type: cell-based, human; details: 10^−5 M one dose

`CCNc1nc(C(F)(F)F)nc2c1sc(=S)n2-c1ccccc1` [Compound 4b, 7-(ethylamino)-3-phenyl-5-(trifluoromethyl)[1, 3]thiazolo[4,5-d]pyrimidine-2(3H)-thione] was tested, and the “Growth of Cells (%)” value [1] was 100.30%, the “Growth of Cells (%)” value [2] was 98.24% and the IC50 [3] was 730 ± 31.1 µM. The “Growth of Cells (%)” value [4] was 94.34%, the “Growth of Cells (%)” value [5] was 112.27% and the “Growth of Cells (%)” value [6] was 83.46%. The “Growth of Cells (%)” value [7] was 99.24%, the “Growth of Cells (%)” value [8] was 93.63% and the “Growth of Cells (%)” value [9] was 106.24%. The “Growth of Cells (%)” value [10] was 70.40%, the “Growth of Cells (%)” value [11] was 81.83% and the “Growth of Cells (%)” value [12] was 96.11%. The “Growth of Cells (%)” value [13] was 88.79%, the “Growth of Cells (%)” value [14] was 88.57% and the “Growth of Cells (%)” value [15] was 95.21%. The “Growth of Cells (%)” value [16] was 94.05%, the “Growth of Cells (%)” value [17] was 73.92% and the “Growth of Cells (%)” value [18] was 100.34%. The “Growth of Cells (%)” value [19] was 98.91%.

With `O=c1[nH]c(C(F)(F)F)nc2c1sc(=S)n2-c1ccccc1` [Compound 2b, 3-phenyl-2-thioxo-5-(trifluoromethyl)-2,3-dihydro[1, 3]thiazolo[4,5-d]pyrimidin-7(6H)-one] the “Growth of Cells (%)” value [1] was 106.95%, the “Growth of Cells (%)” value [2] was 117.19% and the IC50 [3] was 712 ± 29.3 µM. For the same compound, the “Growth of Cells (%)” value [4] was 102.27%, the “Growth of Cells (%)” value [5] was 101.99% and the “Growth of Cells (%)” value [20] was 97.54%. The “Growth of Cells (%)” value [6] was 105.93%, the “Growth of Cells (%)” value [7] was 91.21% and the “Growth of Cells (%)” value [8] was 124.11%. For the same compound, the “Growth of Cells (%)” value [9] was 95.09%, the “Growth of Cells (%)” value [10] was 90.35% and the “Growth of Cells (%)” value [11] was 117.56%. The “Growth of Cells (%)” value [12] was 103.45%, the “Growth of Cells (%)” value [13] was 130.06% and the “Growth of Cells (%)” value [14] was 84.58%. The “Growth of Cells (%)” value [15] was 130.31%, the “Growth of Cells (%)” value [16] was 116.63% and the “Growth of Cells (%)” value [17] was 108.41%. For the same compound, the “Growth of Cells (%)” value [21] was 96.48%, the “Growth of Cells (%)” value [18] was 123.50% and the “Growth of Cells (%)” value [19] was 149.39%.
